Tests used:
Ebolavirus [1] = assay: Antiviral activity against Ebolavirus infected in PBMC (unknown origin) assessed as reduction in viral replication after 24 hrs; assay type: functional
[2] = Half life in rhesus monkey at 10 mg/kg, iv; assay type: ADME, organism-based, Macaca mulatta; conditions: in vivo
Ebolavirus [3] = assay: Antiviral activity against Ebolavirus assessed as reduction in viral replication; assay type: functional; conditions: Orthoebolavirus
Ebolavirus [4] = assay: Antiviral activity against Ebolavirus infected in rhesus monkey assessed as protection against viral disease administered intravenously as once daily regimen; assay type: functional
[5] = Drug metabolism in PBMC (unknown origin) assessed as half life for active triphosphate formation; assay type: ADME, cell-based
[6] = Half life in human at 1.5 mg/kg dosed as single and multiple doses; assay type: ADME, organism-based; conditions: in vivo
[7] = Half life in human at 0.025 mg/kg dosed as single and multiple doses; assay type: ADME, organism-based; conditions: in vivo
[8] = Tmax in human at 0.025 to 2 mg/kg dosed as single and multiple doses; assay type: ADME, organism-based; conditions: in vivo
[9] = Toxicity in patients with solid malignancies assessed as incidence of anemia; conditions: human, in vivo
[10] = Toxicity in patients with solid malignancies assessed as incidence of transaminitis; conditions: human, in vivo
[11] = Toxicity in patients with solid malignancies assessed as incidence of fatigue; conditions: human, in vivo
Mus musculus = species on record: Mus musculus; assay: Toxicity in mouse assessed as body weight loss; assay type: organism-based; conditions: in vivo
[12] = Toxicity in patients with solid malignancies assessed as incidence of thrombocytopenia; conditions: human, in vivo

CCC(CC)OC(=O)[C@H](C)N[P@@](=O)(OC[C@H]1O[C@@](C#N)(c2ccc3c(N)ncnn23)[C@H](O)[C@@H]1O)Oc1ccccc1
inhibition (INH) (Ebolavirus [1]): >50%
half-life [2]: 0.39 h
EC50 (Ebolavirus [3]): 60 to 140 nM
Activity (Ebolavirus [4]): 100%
t1/2 [5]: 14 h

CCCCCCCCCCCCCCCCOCCCOP(=O)(O)CO[C@H](CO)Cn1ccc(N)nc1=O [BRINCIDOFOVIR]
half-life [6]: 32.7 h
half-life [7]: 6.15 h
Tmax [8]: 7 to 15 h

C[C@H](NP(=O)(OC[C@H]1O[C@@H](n2ccc(N)nc2=O)C(F)(F)[C@@H]1O)Oc1ccccc1)C(=O)OCc1ccccc1 (some centres undefined) [FOSGEMCITABINE PALABENAMIDE]
Activity [9]: 67%
Activity [10]: 64%
Activity [11]: 67%
Activity (Mus musculus): < 2%
Activity [12]: 53%

N#C[C@@]1(c2ccc3c(N)ncnn23)O[C@H](CO)[C@@H](O)[C@H]1O [GS-441524]
EC50 (Ebolavirus [3]): 770 to 20000 nM

Source: ChEMBL document CHEMBL3860042, “Nucleoside Phosphate and Phosphonate Prodrug Clinical Candidates” (J Med Chem, 2016)
